smiles,measurement,value
"Cc1ccccc1-c1cc2cnc(NC3CCN(Cc4ccccc4)CC3)nc2n(C2CCOCC2)c1=O [Compound No. 9, 2-[(1-Benzyl-piperidin-4-yl)amino]-6-(2-methyl-phenyl)-8-(tetrahydro-2H-pyran-4-yl)pyrido[2,3-d]pyrimidin-7(8H)-one]",melting point,201.8 to 203.2 °C

# Reference: patent US20090221600A1, “PYRIDO-PYRIDIMIDINE DERIVATIVES USEFUL AS ANTIINFLAMMATORY AGENTS” (priority 2005, published 2009)
